Test results taken from patent publication US11260049B2, “TRPV4 antagonists” (GlaxoSmithKline Intellectual Property (No. 2) Limited, priority 2016, dated 2022).

Molecular target: human TRPV4 (Homo sapiens (Human), UniProt Q9HBA0)
Test: FLIPR assay for hTRPV4 expressed in BHK cells
Format: cell-based
Conditions: inhibition of Agonist Compound (EC80)-induced calcium signal; BHK/AC9 cells expressing human TRPV4; read-out: IC50
Experimental: FLIPR Assay for hTRPV4 Expressed in BHK Cells:
TRPV4 channel activation results in an influx of divalent and monovalent cations including calcium. The resulting changes in intracellular calcium were monitored using a calcium specific fluorescent dye Fluo-4 (MDS Analytical Technologies). BHK/AC9 cells transduced with BacMam virus expressing the human TRPV4 gene at a MOI of 78 were plated in a 384 well poly-D lysine coated plate (15,000 cells/well in 50 μL culture medium containing DMEM/F12 with 15 mM HEPES, 10% FBS, 1% Penicillin-Streptomycin and 1% L-glutamine). Cells were incubated for 24 hours at 37° C. and 5% CO2. Culture medium was then aspirated using a Tecan plate-washer and replaced with 20 μL/well of dye loading buffer: HBSS, 500 μM Brilliant Black (MDS Analytical Technologies), and 2 μM Fluo-4 AM. Dye loaded plates were then incubated in the dark at room temperature for 1˜1.5 hours.

Sequence of human TRPV4 (Q9HBA0 whole entry): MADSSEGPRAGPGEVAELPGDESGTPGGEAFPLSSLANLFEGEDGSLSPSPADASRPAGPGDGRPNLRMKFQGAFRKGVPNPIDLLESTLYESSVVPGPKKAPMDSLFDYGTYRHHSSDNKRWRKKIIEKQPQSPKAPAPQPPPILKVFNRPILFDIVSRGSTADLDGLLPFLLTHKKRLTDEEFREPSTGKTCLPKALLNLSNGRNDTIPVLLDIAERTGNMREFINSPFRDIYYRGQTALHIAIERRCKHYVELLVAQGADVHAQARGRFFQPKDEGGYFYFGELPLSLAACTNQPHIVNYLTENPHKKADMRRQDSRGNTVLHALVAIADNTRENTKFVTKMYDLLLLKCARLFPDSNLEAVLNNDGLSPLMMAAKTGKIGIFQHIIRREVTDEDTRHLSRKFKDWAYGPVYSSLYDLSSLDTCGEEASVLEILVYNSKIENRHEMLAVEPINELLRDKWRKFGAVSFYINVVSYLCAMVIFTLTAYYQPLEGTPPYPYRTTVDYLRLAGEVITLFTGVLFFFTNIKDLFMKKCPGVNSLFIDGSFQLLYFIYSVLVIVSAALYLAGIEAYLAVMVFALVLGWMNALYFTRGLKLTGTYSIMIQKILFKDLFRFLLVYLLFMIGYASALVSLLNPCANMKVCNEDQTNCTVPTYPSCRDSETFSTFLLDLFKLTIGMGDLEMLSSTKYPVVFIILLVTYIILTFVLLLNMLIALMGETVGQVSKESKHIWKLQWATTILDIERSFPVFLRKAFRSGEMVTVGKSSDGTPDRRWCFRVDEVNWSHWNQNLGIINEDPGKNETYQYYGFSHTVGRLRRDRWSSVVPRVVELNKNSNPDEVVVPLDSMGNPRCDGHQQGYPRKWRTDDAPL

SMILES | IC50
N#Cc1ccc(S(=O)(=O)N2C[C@H](S(=O)(=O)c3ccc(Cl)cc3)[C@@](O)(CO)C2)c(Cl)c1 [Example 23, 3-chloro-4-(((3S,4S)-4-((4-chlorophenyl)sulfonyl)-3-hydroxy-3-(hydroxymethyl)pyrrolidin-1-yl)sulfonyl)benzonitrile] | 0.01 to 0.1 µM
N#Cc1ccc(S(=O)(=O)N2C[C@H](S(=O)(=O)c3ccc(Br)cc3)[C@@](O)(CO)C2)c(Cl)c1 [Example 24, 4-(((3S,4S)-4-((4-bromophenyl)sulfonyl)-3-hydroxy-3-(hydroxymethyl)pyrrolidin-1-yl)sulfonyl)-3-chlorobenzonitrile] | 0.01 to 0.1 µM
N#Cc1ccc(S(=O)(=O)[C@H]2CN(S(=O)(=O)c3ccc(Cl)cc3C(F)(F)F)C[C@@]2(O)CO)cc1 [Example 25, 4-(((3S,4R)-1-((4-chloro-2-(trifluoromethyl)phenyl)sulfonyl)-4-hydroxy-4-(hydroxymethyl)pyrrolidin-3-yl)sulfonyl)benzonitrile] | 0.0001 to 0.01 µM
N#Cc1ccc(S(=O)(=O)N2C[C@H](S(=O)(=O)c3ccc(C(F)(F)F)nc3)[C@](O)(CO)C2)c(Cl)c1 [Example 26, 3-chloro-4-(((3R,4S)-3-hydroxy-3-(hydroxymethyl)-4-((6-(trifluoromethyl)pyridin-3-yl)sulfonyl)pyrrolidin-1-yl)sulfonyl)benzonitrile] | 0.01 to 0.1 µM
N#Cc1ccc(S(=O)(=O)N2C[C@H](S(=O)(=O)c3ccc(C(F)(F)F)nc3)[C@](O)(CO)C2)c(C(F)(F)F)c1 [Example 27, 4-(((3R,4S)-3-hydroxy-3-(hydroxymethyl)-4-((6-(trifluoromethyl)pyridin-3-yl)sulfonyl)pyrrolidin-1-yl)sulfonyl)-3-(trifluoromethyl)benzonitrile] | 0.01 to 0.1 µM
Cc1cc(C(F)(F)F)ccc1S(=O)(=O)N1C[C@H](S(=O)(=O)c2ccc(C#N)cc2)[C@](O)(CO)C1 [Example 28, 4-(((3S,4R)-4-hydroxy-4-(hydroxymethyl)-1-((2-methyl-4-(trifluoromethyl)phenyl)sulfonyl)pyrrolidin-3-yl)sulfonyl)benzonitrile] | 0.01 to 0.1 µM
N#Cc1ccc(S(=O)(=O)[C@H]2CN(S(=O)(=O)c3ccc(F)cc3C(F)(F)F)C[C@@]2(O)CO)cc1 [Example 29, 4-(((3S,4R)-1-((4-fluoro-2-(trifluoromethyl)phenyl)sulfonyl)-4-hydroxy-4-(hydroxymethyl)pyrrolidin-3-yl)sulfonyl)benzonitrile] | 0.0001 to 0.01 µM
N#Cc1ccc(S(=O)(=O)[C@H]2CN(S(=O)(=O)c3ccc(Br)cc3C(F)(F)F)C[C@@]2(O)CO)cc1 [Example 30, 4-(((3S,4R)-1-((4-bromo-2-(trifluoromethyl)phenyl)sulfonyl)-4-hydroxy-4-(hydroxymethyl)pyrrolidin-3-yl)sulfonyl)benzonitrile] | 0.0001 to 0.01 µM
COc1ccc(S(=O)(=O)N2C[C@H](S(=O)(=O)c3ccc(C#N)cc3)[C@](O)(CO)C2)c(C(F)(F)F)c1 [Example 31, 4-(((3S,4R)-4-hydroxy-4-(hydroxymethyl)-1-((4-methoxy-2-(trifluoromethyl)phenyl)sulfonyl)pyrrolidin-3-yl)sulfonyl)benzonitrile] | 0.01 to 0.1 µM
N#Cc1ccc(S(=O)(=O)[C@H]2CN(S(=O)(=O)c3ccc(C(F)(F)F)cc3Br)C[C@@]2(O)CO)cc1 [Example 32, 4-(((3S,4R)-1-((2-bromo-4-(trifluoromethyl)phenyl)sulfonyl)-4-hydroxy-4-(hydroxymethyl)pyrrolidin-3-yl)sulfonyl)benzonitrile] | 0.01 to 0.1 µM
N#Cc1ccc(S(=O)(=O)[C@H]2CN(S(=O)(=O)c3ccccc3Br)C[C@@]2(O)CO)cc1 [Example 33, 4-(((3S,4R)-1-((2-bromophenyl)sulfonyl)-4-hydroxy-4-(hydroxymethyl)pyrrolidin-3-yl)sulfonyl)benzonitrile] | 0.01 to 0.1 µM
N#Cc1ccc(S(=O)(=O)[C@H]2CN(S(=O)(=O)c3ccc(Br)cc3Cl)C[C@@]2(O)CO)cc1 [Example 34, 4-(((3S,4R)-1-((4-bromo-2-chlorophenyl)sulfonyl)-4-hydroxy-4-(hydroxymethyl)pyrrolidin-3-yl)sulfonyl)benzonitrile] | 0.0001 to 0.01 µM
COc1cc(C#N)ccc1S(=O)(=O)N1C[C@H](S(=O)(=O)c2ccc(Cl)cc2)[C@](O)(CO)C1 [Example 35, 4-(((3R,4S)-4-((4-chlorophenyl)sulfonyl)-3-hydroxy-3-(hydroxymethyl)pyrrolidin-1-yl)sulfonyl)-3-methoxybenzonitrile] | 0.0001 to 0.01 µM
N#Cc1ccc(S(=O)(=O)[C@H]2CN(S(=O)(=O)c3ccc(C(F)(F)F)cc3F)C[C@@]2(O)CO)cc1 [Example 36, 4-(((3S,4R)-1-((2-fluoro-4-(trifluoromethyl)phenyl)sulfonyl)-4-hydroxy-4-(hydroxymethyl)pyrrolidin-3-yl)sulfonyl)benzonitrile] | 0.01 to 0.1 µM
O=S(=O)(c1ccc(Cl)cc1)[C@H]1CN(S(=O)(=O)c2ccc(C(F)F)cc2Cl)C[C@@]1(O)CO [Example 37, (3R,4S)-1-((2-chloro-4-(difluoromethyl)phenyl)sulfonyl)-4-((4-chlorophenyl)sulfonyl)-3-(hydroxymethyl)pyrrolidin-3-ol] | 0.01 to 0.1 µM
N#Cc1ccc(S(=O)(=O)N2C[C@H](S(=O)(=O)c3ccc(Cl)cc3)[C@](O)(CO)C2)c(Br)c1 [Example 38, 3-bromo-4-(((3R,4S)-4-((4-chlorophenyl)sulfonyl)-3-hydroxy-3-(hydroxymethyl)pyrrolidin-1-yl)sulfonyl)benzonitrile] | 0.0001 to 0.01 µM
N#Cc1ccc(S(=O)(=O)N2C[C@H](S(=O)(=O)c3ccc(C(F)(F)F)nc3)[C@](O)(CO)C2)c(Br)c1 [Example 39, 3-bromo-4-(((3R,4S)-3-hydroxy-3-(hydroxymethyl)-4-((6-(trifluoromethyl)pyridin-3-yl)sulfonyl)pyrrolidin-1-yl)sulfonyl)benzonitrile] | 0.01 to 0.1 µM
N#Cc1cc(Cl)ccc1S(=O)(=O)N1C[C@H](S(=O)(=O)c2ccc(C(F)(F)F)nc2)[C@](O)(CO)C1 [Example 40, 5-chloro-2-(((3R,4S)-3-hydroxy-3-(hydroxymethyl)-4-((6-(trifluoromethyl)pyridin-3-yl)sulfonyl)pyrrolidin-1-yl)sulfonyl)benzonitrile] | 0.01 to 0.1 µM
N#Cc1ccc(S(=O)(=O)[C@H]2CN(S(=O)(=O)c3ccccc3C(F)(F)F)C[C@@]2(O)CO)cc1 [Example 41, 4-(((3S,4R)-4-hydroxy-4-(hydroxymethyl)-1-((2-(trifluoromethyl)phenyl)sulfonyl)pyrrolidin-3-yl)sulfonyl)benzonitrile] | 0.01 to 0.1 µM
N#Cc1ccc(S(=O)(=O)[C@H]2CN(S(=O)(=O)c3ccc(C(F)F)cc3Cl)C[C@@]2(O)CO)cc1 [Example 42, 4-(((3S,4R)-1-((2-chloro-4-(difluoromethyl)phenyl)sulfonyl)-4-hydroxy-4-(hydroxymethyl)pyrrolidin-3-yl)sulfonyl)benzonitrile] | 0.01 to 0.1 µM
O=S(=O)(c1ccc(Cl)cc1)[C@H]1CN(S(=O)(=O)c2ccc(CF)cc2Cl)C[C@@]1(O)CO [Example 43, (3R,4S)-1-((2-chloro-4-(fluoromethyl)phenyl)sulfonyl)-4-((4-chlorophenyl)sulfonyl)-3-(hydroxymethyl)pyrrolidin-3-ol] | 0.01 to 0.1 µM
N#Cc1ccc(S(=O)(=O)[C@H]2CN(S(=O)(=O)c3ccc(CF)cc3Cl)C[C@@]2(O)CO)cc1 [Example 44, 4-(((3S,4R)-1-((2-chloro-4-(fluoromethyl)phenyl)sulfonyl)-4-hydroxy-4-(hydroxymethyl)pyrrolidin-3-yl)sulfonyl)benzonitrile] | 0.01 to 0.1 µM
